In patent EP0068324A2, “Microcapsule preparation for reducing increased intracranial pressure and a process for preparing the same” (Tanabe Seiyaku Co., Ltd., priority 1981, dated 1983) one finds LD50 data, which are given here for 1 compound.

The nature of this data set: in vivo. The note with it: mouse, po, mice, orally administered, measured one week after administration. The text has this: The microcapsule preparation containing a propanol derivative of the present invention can reduce the intracranial pressure in an extremely small amount, which may be by a different mechanism from the hyperosmolar dehydrating effect by the known intravenous injection of a large amount of hypertonic solution, and the therapeutic effect is large and durable without showing any side effect such as a rebound increase of the intracranial pressure. The propanol derivative (I) of the present invention is low toxic and highly safeful.

In general, LD50 refers to the dose at which mortality reaches 50%. Read a high LD50 as lower toxicity. As for `COc1cc(NC(C)=O)ccc1OCC(O)CN1CCN(c2cccc(F)c2)CC1` (stereo not shown) [1-(4-Acetamido-2-methoxyphenoxy)-3-[4-(3-fluorophenyl)piperazino]-2-propanol], the LD50 at 168 h is approximately 1500 mg/kg.
